According to patent US20260174784A1, “Molecular Signatures that Predict Risk for Development of Hepatic Encephalopathy” (The Regents of the University of California, priority 2022, published 2026):

Experiments:
[1] = test system: hepatic encephalopathy; test: HE treatment of readmitted TIPS participant 11_a (case course); type: in vivo, human; settings: for response to HE treatment: first readmission 9 days post-TIPS, lactulose and rifaximin given together
Description: After the data were collected, the hospital courses of the two participants who were readmitted during the study period were examined. Participant 11_a (FIG. 6C) was a person with a history of cryptogenic cirrhosis with banded esophageal varices but with no prior history of HE. They underwent TIPS procedure due to progressively worsening ascites refractory to diuretic therapy and need for intermittent paracentesis. They were readmitted to the medical intensive care unit 9 days post-TIPS with obtundation requiring intubation for airway protection. Blood was drawn on the day of admission before initiation of hepatic encephalopathy treatment (pre-HET) (FIG. 6C). […] Blood was collected for analysis on the day after treatment initiation (post-HET) (FIG. 6C). They were discharged 9 days later. However, they were readmitted within 72 hours for altered mental status. […] Their encephalopathy resolved after continuous polyethylene glycol infusion via nasojejunal tube, but was again admitted 352 days post-TIPS for HE in the setting of urosepsis.

[2] = target: T1, farnesoid X receptor (FXR) (Homo sapiens, UniProt Q96RI1); settings: ligand-mediated nuclear receptor; literature ref 48; cited from earlier work
T1 sequence (Q96RI1 1-486): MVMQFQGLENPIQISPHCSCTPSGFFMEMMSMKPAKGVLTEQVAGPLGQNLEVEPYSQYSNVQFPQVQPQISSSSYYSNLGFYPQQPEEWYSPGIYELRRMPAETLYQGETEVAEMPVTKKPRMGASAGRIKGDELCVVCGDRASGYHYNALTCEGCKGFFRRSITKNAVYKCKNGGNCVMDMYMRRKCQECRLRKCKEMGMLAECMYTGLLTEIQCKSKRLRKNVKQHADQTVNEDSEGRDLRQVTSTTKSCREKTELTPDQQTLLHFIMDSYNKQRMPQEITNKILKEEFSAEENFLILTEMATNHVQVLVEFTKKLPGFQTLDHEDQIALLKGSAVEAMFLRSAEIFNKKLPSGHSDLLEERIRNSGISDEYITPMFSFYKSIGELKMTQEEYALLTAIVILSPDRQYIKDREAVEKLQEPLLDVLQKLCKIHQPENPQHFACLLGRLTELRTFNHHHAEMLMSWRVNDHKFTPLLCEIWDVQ

[3] = test system: neuronal oxidative damage induced by bilirubin; settings: supplementation with GUDCA; previous studies in animal models; cited from earlier work

In the case of `OC[C@H]1O[C@@H](O[C@@H]2[C@@H](CO)OC(O)(CO)[C@H]2O)[C@H](O)[C@@H](O)[C@H]1O` (mixture of isomers) [lactulose], the “response to HE treatment” value [1] is reported as “responded well”.
For `C[C@H](CCC(=O)NCC(=O)O)[C@H]1CC[C@H]2[C@@H]3[C@@H](O)C[C@@H]4C[C@H](O)CC[C@]4(C)[C@H]3CC[C@]12C` [GUDCA, glycoursodeoxycholic acid], the “effect on farnesoid X receptor (FXR)” value [2] is listed as “directly inhibited” and the “neuronal oxidative damage induced by bilirubin” value [3] is listed as “can be inhibited”.
In the case of `CO[C@H]1/C=C/O[C@@]2(C)Oc3c(C)c(O)c4c(O)c(c5c(nc6cc(C)ccn65)c4c3C2=O)NC(=O)/C(C)=C\C=C\[C@H](C)[C@H](O)[C@@H](C)[C@@H](O)[C@@H](C)[C@H](OC(C)=O)[C@@H]1C` [rifaximin], the “response to HE treatment” value [1] is reported as “responded well”.
In the case of polyethylene glycol, the encephalopathy outcome ([1]; second readmission, continuous infusion via nasojejunal tube) is reported as “resolved”.
